Here are results for twelve compounds from patent publication US20060134602A1, “Methods of identifying cytotoxic effects in quiescent cells” (priority 2004, published 2006).

Where two headings read alike, the source gives them in different places. *1 amine or outer side, *2 acyl side, *3 side chain or, on linkers, in order; H or OH if unused. Where a SMILES comes first, the peptide text is derived from it. Bridges are numbered along the chain shown (N, C = ends). Roman numbers before positions name the chains, in order. [ ]: non-standard residue; d: D form. Actinocin(9to1) = Cc1c2oc3c(C)ccc(C(=O)[*:1])c3nc-2c(C(=O)[*:2])c(N)c1=O; NMeV = CN[C@H](C(=O)O)C(C)C; Sar = CNCC(=O)O Where only a bound is given, the exact number is not on record here.

In data set [1] the test system is quiescent IMR-90 human lung fibroblasts. In words: cells. The protocol: Quantitation of Cytotoxicity: A luciferase assay kit was used to quantitate the amount of ATP produced by cells in each well to measure cytotoxicity of the compounds. The assay utilizes the enzyme luciferase which catalyses a reaction of ATP and luciferin to form light. The light produced is measured to determine the amount of ATP produced by the cells in each well. The higher the cell mortality in each well, the less ATP, and consequently, the less light will be produced. […] Wells in rows one and two, which contained no compound, were controls.
Preparation of Quiescent Cells: A 96 well plate was plated at 0.8×10^4 cells/well in 200 μL of growth medium (MEM with Earle's salt) with IMR-90 human lung fibroblasts. The cells were incubated at 37° C. for four days.
The media was removed from the wells, and each well was washed twice with 200 μL of MEM with Earle's salt and no serum. 90 μL/well of MEM with Earle's salt media containing sodium pyruvate, non-essential amino acids, L-glutamine and 0.1% fetal bovine serum was added to each well, and the cells were incubated for one day at 37° C.
10 μL of carbonyl cyanide (a positive control for cytotoxicity) stock solutions were added to rows one and two to obtain concentrations of 0 μM, 0.003 μM, 0.01 μM, 0.03 μM, 0.1 μM, 0.3 μM, 1.0 μM, 3.0 μM, 10.0 μM, 30.0 μM, and 100.0 μM in wells 2 through 12. 10 μL of stock solution of test compounds were added to duplicate row to obtain concentrations of 0 μM, 0.003 μM, 0.01 μM, 0.03 μM, 0.1 μM, 0.3 μM, 1.0 μM, 3.0 μM, 10.0 μM, 30.0 μM, and 100.0 μM in wells 2 through 12. The first well in each row contained no cells. […] The cells were incubated with the test compounds for 24 hours, 48 hours, or 72 hours.

The test system of data set [2] is proliferating cancer cells. The note with it: cited from earlier work.
Setting [3] is: read-out: IC50, 24 hours, quiescent IMR-90 human lung fibroblasts, 24 hours incubation.
Where [4] appears, read: read-out: IC50, 48 hours, quiescent IMR-90 human lung fibroblasts, 48 hours incubation.
[5] abbreviates: read-out: IC50, 72 hours, quiescent IMR-90 human lung fibroblasts, 72 hours incubation.
[6] abbreviates: Homo sapiens, IMR-90, 24 h, read-out: IC50, 24 hours, quiescent IMR-90 human lung fibroblasts, 24 hours incubation.
Setting [7] is: Homo sapiens, IMR-90, 48 h, read-out: IC50, 48 hours, quiescent IMR-90 human lung fibroblasts, 48 hours incubation.
Where [8] appears, read: Homo sapiens, IMR-90, 72 h, read-out: IC50, 72 hours, quiescent IMR-90 human lung fibroblasts, 72 hours incubation.

Broadly, the IC50 is the concentration needed to halve the response being measured. With `O=c1[nH]cc(F)c(=O)[nH]1` [5-FU, 5-fluorouricil], the IC50 in data set [1] (setting [3]), in data set [1] (setting [4]) and in data set [1] (setting [5]) was over 10 µM each time.

As for `Cc1c2oc3c(C)ccc(C(=O)N[C@@H]4C(=O)N[C@H](C(C)C)C(=O)N5CCC[C@H]5C(=O)N(C)CC(=O)N(C)[C@@H](C(C)C)C(=O)O[C@@H]4C)c3nc-2c(C(=O)N[C@@H]2C(=O)N[C@H](C(C)C)C(=O)N3CCC[C@H]3C(=O)N(C)CC(=O)N(C)[C@@H](C(C)C)C(=O)O[C@@H]2C)c(N)c1=O` [Atinomycin D, actinomycin D] (I: T[dV]P[Sar][NMeV] / II: T[dV]P[Sar][NMeV]; ester I:1-I:C, II:1-II:C; linker I:N-II:N via Actinocin(9to1)), the “time dependence of cytotoxicity against quiescent fibroblasts” value in data set [1] is “time-dependent increases in cytotoxicity”. In addition, the IC50 in data set [1] (setting [3]) is over 10 µM; in data set [1] (setting [4]) it was over 10 µM; in data set [1] (setting [5]), 3.1 µM.

Turning to `COc1cccc2c1C(=O)c1c(O)c3c(c(O)c1C2=O)C[C@@](O)(C(=O)CO)C[C@@H]3O[C@H]1C[C@H](N)[C@H](O)[C@H](C)O1` [Doxorubicin, doxorubicin], in data set [1], the “time dependence of cytotoxicity against quiescent fibroblasts” value is “time-dependent increases in cytotoxicity”. Besides, the values for the IC50 in data set [1] (setting [6]), in data set [1] (setting [7]) and in data set [1] (setting [8]) were over 10 µM, 5.3 µM and 2.5 µM, respectively.

On to `COc1cc([C@@H]2c3cc4c(cc3[C@@H](O[C@@H]3O[C@@H]5CO[C@@H](C)O[C@H]5[C@H](O)[C@H]3O)[C@H]3COC(=O)[C@H]23)OCO4)cc(OC)c1O` [Etoposide, etoposide], for which the IC50 in data set [1] (setting [6]), in data set [1] (setting [7]) and in data set [1] (setting [8]) was over 10 µM each time.

In the case of `Nc1ccn([C@@H]2O[C@H](CO)[C@@H](O)C2(F)F)c(=O)n1` [Gemcitabine, gemcitabine], the IC50 in data set [1] (setting [6]), in data set [1] (setting [7]) and in data set [1] (setting [8]) was over 10 µM throughout.

As for `CO[C@@]12[C@H](COC(N)=O)C3=C(C(=O)C(C)=C(N)C3=O)N1C[C@@H]1N[C@@H]12` [Mitomycin C, mitomycin C], the IC50 in data set [1] (setting [3]) was over 10 µM; in data set [1] (setting [4]) it was over 10 µM; in data set [1] (setting [5]), 5 µM.

In the case of `O=C1[O][Pt]2([NH][C@@H]3CCCC[C@H]3[NH]2)[O]C1=O` [Oxaliplatin, oxaliplatin], the IC50 in data set [1] (setting [3]), in data set [1] (setting [4]) and in data set [1] (setting [5]) was over 10 µM throughout.

As to `CC(=O)O[C@H]1C(=O)[C@@]2(C)[C@H]([C@H](OC(=O)c3ccccc3)[C@]3(O)C[C@H](OC(=O)[C@H](O)[C@@H](NC(=O)c4ccccc4)c4ccccc4)C(C)=C1C3(C)C)[C@]1(OC(C)=O)CO[C@@H]1C[C@@H]2O` [Paclitaxel, paclitaxel], the IC50 in data set [1] (setting [6]) was over 10 µM; in data set [1] (setting [7]), over 10 µM; in data set [1] (setting [8]) it was 8.5 µM; in data set [1] (setting [5]), 10 µM. Also, the “concentration at which cytotoxic to quiescent fibroblasts” value in data set [1] (human, 72 h) was “approximately 10 μM”. In addition, in data set [2], the “concentration inhibiting cancer cell growth” value was “low nanomolar concentration”.

With `CCc1c2c(nc3ccc(O)cc13)-c1cc3c(c(=O)n1C2)COC(=O)[C@]3(O)CC` [SN-38], the IC50 is 7.1 µM in data set [1] (setting [3]), 8 µM in data set [1] (setting [4]) and 8.5 µM in data set [1] (setting [5]).

On to `CC[C@]1(O)C[C@@H]2CN(CCc3c([nH]c4ccccc34)[C@@](C(=O)OC)(c3cc4c(cc3OC)N(C)[C@H]3[C@@](O)(C(=O)OC)[C@H](OC(C)=O)[C@]5(CC)C=CCN6CC[C@]43[C@@H]65)C2)C1` [Vinblastine, vinblastine], for which the IC50 in data set [1] (setting [6]), in data set [1] (setting [7]) and in data set [1] (setting [8]) was over 10 µM in each case.

Regarding `CC[C@]1(O)C[C@H]2CN(CCc3c([nH]c4ccccc34)[C@@](C(=O)OC)(c3cc4c(cc3OC)N(C=O)[C@H]3[C@@](O)(C(=O)OC)[C@H](OC(C)=O)[C@]5(CC)C=CCN6CC[C@]43[C@@H]65)C2)C1` [Vincristine, vincristine], the IC50 in data set [1] (setting [6]), in data set [1] (setting [7]) and in data set [1] (setting [8]) was over 10 µM each time.

Take `C[C@@H]1C[C@@H]([C@H](O)CC2CC(=O)NC(=O)C2)C(=O)[C@@H](C)C1` [cycloheximide]: the IC50 in data set [1] (Homo sapiens, IMR-90, 24 h, read-out: IC50, 24 hours) was over 10 µM; in data set [1] (Homo sapiens, IMR-90, 48 h, read-out: IC50, 48 hours), over 10 µM; in data set [1] (Homo sapiens, IMR-90, 72 h, read-out: IC50, 72 hours) it was over 10 µM.
